Reference: PMC2533354, “Highly specific inhibition of leukaemia virus membrane fusion by interaction of peptide antagonists with a conserved region of the coiled coil of envelope” (Retrovirology, 2008)
Where a SMILES comes first, the peptide text is derived from it.

Legend:
[1] = biological target: T1, BLV envelope (Bovine leukemia virus, UniProt P51519); assay: Syncytium interference assay, BLV envelope-expressing HeLa effector cells; type: cell-based; settings: peptide at 20 μM; BLV envelope-expressing HeLa effectors (Figure 4B)
T1 construct: A fragment encompassing the entire BLV envelope open reading frame; expressed in transfected cells; host or cells: HeLa (co-transfected with pRSV-Rev)
Experimental: (§1) Briefly, HeLa cells for use as effector cells were transfected with the envelope expression vector pHTE-1 or with equal amounts of pCMV-BLVenv-RRE and pRSV-Rev using the Genejuice™ transfection reagent (Novagen) in accordance with the manufacturer's instructions. 24 h later, 3 × 10^5 effector cells were added to 7 × 10^5 untransfected HeLa target cells in six-well dishes (Nunc). Where appropriate, the co-culture was incubated in the presence of peptides at the concentrations specified. To assess the ability of the peptides to inhibit fusion induced by virally expressed BLV envelope, 2 × 10^5 BLV-infected FLK cells were used as effectors and added to 8 × 10^5 uninfected HeLa cells. After incubation at 37°C for 16 h, cells were washed twice with PBS and fixed in PBS + 3% paraformaldehyde. Assays were performed in triplicate and the number of syncytia (defined as multinucleated cells with 4 or more nuclei) from 10 low-power fields (LPF) per replicate was scored by light microscopy; some assays were stained using Giemsa. A syncytium formation value of 100% is defined as the number of syncytia formed in the absence of peptide but in the presence of 1.5% DMSO.

[2] = test system: virally expressed BLV envelope (BLV-infected FLK cells); settings: chronically BLV infected FLK effector cells + HeLa target cells; result in words (Figure 3C)
Experimental: as §1

[3] = biological target: T2, HTLV-1 envelope (Human T-cell leukemia virus 1, UniProt P03381); assay: Syncytium interference assay, HTLV-1 envelope-expressing HeLa effector cells; type: cell-based; settings: concentrations up to 20 μM and above; result in words
T2 construct: expressed in transfected cells; host or cells: HeLa
Experimental: as §1

[4] = Relative peptide solubility by laser nephelometry; type: physicochemical; settings: filtered PBS with 1.5 % DMSO, maximum solubility in aqueous solution, two-fold serial dilution from DMSO stock, 200 μl, 1 hr at room temperature, laser nephelometry (forward scattered light, NEPHELOstar), duplicate wells, in solution if reading up to 3-fold the DMSO control
Experimental: A two-fold serial dilution of peptide in DMSO was performed, and added in duplicate to 96-well microplates. Filtered PBS was added to give a total volume of 200 μl and a final DMSO concentration of 1.5 % in all wells. The plates were incubated at room temperature for 1 hr and the relative solubility of peptides was established by measuring forward scattered light using a NEPHELOstar laser-based microplate nephelometer (BMG LABTECH). Wells containing PBS and 1.5 % DMSO only were used as blanks. Data analysis was carried out using ActivityBase, and peptides giving readings up to and including 3-fold higher than the average reading for the DMSO control were considered to be in solution at the concentrations specified.

T1 sequence (P51519 302-515): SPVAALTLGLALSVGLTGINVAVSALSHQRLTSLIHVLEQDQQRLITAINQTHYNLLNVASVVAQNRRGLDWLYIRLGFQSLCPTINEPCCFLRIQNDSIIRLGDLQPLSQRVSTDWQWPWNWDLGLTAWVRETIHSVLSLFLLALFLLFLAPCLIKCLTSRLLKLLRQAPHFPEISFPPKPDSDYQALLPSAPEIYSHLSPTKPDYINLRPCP
T2 sequence (P03381 313-488): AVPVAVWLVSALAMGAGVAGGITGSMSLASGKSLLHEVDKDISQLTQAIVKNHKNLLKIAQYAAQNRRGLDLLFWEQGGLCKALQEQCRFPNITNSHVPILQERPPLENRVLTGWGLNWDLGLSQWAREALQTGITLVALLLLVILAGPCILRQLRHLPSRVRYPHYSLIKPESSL

With `CC[C@H](C)[C@H](NC(=O)[C@H](CCCNC(=N)N)NC(=O)[C@H](CC(C)C)NC(=O)[C@H](Cc1ccccc1)NC(=O)[C@H](CS)NC(=O)[C@H](CS)NC(C)=O)C(=O)N[C@@H](CCC(N)=O)C(=O)N[C@@H](CC(N)=O)C(=O)N[C@@H](CC(=O)O)C(=O)N[C@@H](CO)C(=O)N[C@H](C(=O)N[C@H](C(=O)N[C@@H](CCCNC(=N)N)C(=O)N[C@@H](CC(C)C)C(=O)NCC(=O)N[C@@H](CC(=O)O)C(=O)N[C@@H](CC(C)C)C(=O)N[C@@H](CCC(N)=O)C(=O)N1CCC[C@H]1C(=O)N[C@@H](CC(C)C)C(=O)N[C@@H](CO)C(=O)N[C@@H](CCC(N)=O)C(=O)N[C@@H](CCCNC(=N)N)C(=O)N[C@H](C(=O)N[C@@H](CO)C(=O)N[C@H](C(=O)N[C@@H](CC(=O)O)C(=O)N[C@@H](Cc1c[nH]c2ccccc12)C(=O)N[C@@H](CCC(N)=O)C(N)=O)[C@@H](C)O)C(C)C)[C@@H](C)CC)[C@@H](C)CC` [P^BLV-391] (Ac-CCFLRIQNDSIIRLGDLQPLSQRVSTDWQ-NH2) the “Block of syncytium formation” value [1] was greater than 95%, the “Inhibition of membrane fusion induced by virally expressed BLV envelope” value [2] was “robustly antagonized” and the “Inhibition of membrane fusion induced by HTLV-1 envelope” value [3] was “failed to inhibit”. The solubility kinetic at 1 h [4] was greater than 90 µM.
